Data published in patent US10154981B2, “Use of a feed composition for reducing methane emission in ruminants, and/or to improve ruminant performance” (DSM IP ASSETS B.V., priority 2011, dated 2018).

Tested on: rumen liquor
Experiment: In vitro test for methane production (modified Hohenheim Forage value Test, HFT)
Conditions: for Effect on Methanogenesis (% compared to control) / Effect on VFA production (% compared to control): artificial TMR, 8 hours at 39° C.; for Effect on Methanogenesis (% compared to control) / Effect on VFA production (% compared to control) / VFA profile (as percentage of total VFA) Ace. / VFA profile (as percentage of total VFA) But. / VFA profile (as percentage of total VFA) Prop.: average of three experiments; for VFA profile (as percentage of total VFA) Ace.: acetate; for VFA profile (as percentage of total VFA) But.: butyrate; for VFA profile (as percentage of total VFA) Prop.: propionate

SMILES | effect on the acetate/propionate ratio (in words) (3-nitrooxy propanol at 0.01% DM when combined with monensin) | methane inhibition (in words) (3-nitrooxy propanol used at 0.01% DM) | Effect on Methanogenesis (% compared to control) (Dose 0.005 % DM) | Effect on VFA production (% compared to control) (Dose 0.005 % DM) | Effect on Methanogenesis (% compared to control) (Dose 0.01 % DM) | Effect on VFA production (% compared to control) (Dose 0.01 % DM) | VFA profile (as percentage of total VFA) Ace. (Dose 0.005 % DM) | VFA profile (as percentage of total VFA) Ace. (Dose 0.01 % DM) | VFA profile (as percentage of total VFA) But. (Dose 0.005 % DM) | VFA profile (as percentage of total VFA) But. (Dose 0.01 % DM) | VFA profile (as percentage of total VFA) Prop. (Dose 0.005 % DM) | VFA profile (as percentage of total VFA) Prop. (Dose 0.01 % DM)
O=[N+]([O-])OCCCO [3-nitrooxy propanol, 3-Nitrooxypropanol] | further additive effect | maximal methane inhibition | −21% | −3% | −97% | −13% | 57 percentage of total VFA | 50 percentage of total VFA | 7 percentage of total VFA | 8 percentage of total VFA | 36 percentage of total VFA | 42 percentage of total VFA
CC[C@@]1([C@@H]2O[C@@H]([C@H]3O[C@@](O)(CO)[C@H](C)C[C@@H]3C)C[C@@H]2C)CC[C@H]([C@]2(C)CC[C@]3(C[C@H](O)[C@@H](C)[C@@H]([C@@H](C)[C@@H](OC)[C@H](C)C(=O)O)O3)O2)O1 [Monensin, monensin, reference compound] | – | – | – | – | −23% | −6% | – | 56 percentage of total VFA | – | 6 percentage of total VFA | – | 38 percentage of total VFA
